Data as given in ChEMBL document CHEMBL3885881, “DrugMatrix”.

Species: Rattus norvegicus
Experiment: DrugMatrix - Regimen: Daily Repeat
Assay type: toxicity, organism-based, Sprague-Dawley
Design: regimen Daily Repeat, gender Male, age 6-8 weeks
Settings: in vivo, po, route oral GAVAGE, vehicle 100 % WATER; for BASOPHIL / EOSINOPHIL / ERYTHROCYTE COUNT / HEMATOCRIT / HEMOGLOBIN / LEUKOCYTE COUNT / LYMPHOCYTE / MEAN CORPUSCULAR HEMOGLOBIN / MEAN CORPUSCULAR HEMOGLOBIN CONCENTRATION / MEAN CORPUSCULAR VOLUME / MONOCYTE / NEUTROPHIL / PLATELET COUNT: tissue Blood; for ALANINE AMINOTRANSFERASE / ALBUMIN / ALKALINE PHOSPHATASE / ASPARTATE AMINOTRANSFERASE / BLOOD UREA NITROGEN / CARBON DIOXIDE / CHLORIDE / CHOLESTEROL / CREATINE PHOSPHOKINASE / CREATININE / GLUCOSE / LACTATE DEHYDROGENASE / LIPASE / PHOSPHORUS / POTASSIUM / SODIUM / TOTAL BILIRUBIN / TOTAL PROTEIN / URIC ACID: tissue Plasma
[1] = 0 mg/kg, 96 h, dose level Control, time 4 day
[2] = 0 mg/kg, […], dose level Control, time 6 day
[3] = 0 mg/kg, […], dose level Control, time 14 day
[4] = 210 mg/kg, 96 h, dose level High, time 4 day
[5] = 210 mg/kg, […], dose level High, time 6 day
[6] = 210 mg/kg, […], dose level High, time 14 day

OCC1CO1 (configuration not stated) [GLYCIDOL]
BASOPHIL [1]: 0.47% | EOSINOPHIL [1]: 0.58% | ERYTHROCYTE COUNT [1]: 6.84 x10E6/uL | HEMATOCRIT [1]: 44.27% | HEMOGLOBIN [1]: 14.08 G/DL | LEUKOCYTE COUNT [1]: 13.39 x10E3/uL | LYMPHOCYTE [1]: 83.57% | MEAN CORPUSCULAR HEMOGLOBIN [1]: 20.57 pg | MEAN CORPUSCULAR HEMOGLOBIN CONCENTRATION [1]: 31.77 G/DL | MEAN CORPUSCULAR VOLUME [1]: 64.68 fL | MONOCYTE [1]: 1.92% | NEUTROPHIL [1]: 12.95% | PLATELET COUNT [1]: 1533.67 x10E3/uL | ALANINE AMINOTRANSFERASE [1]: 28.17 u/L | ALBUMIN [1]: 3.82 G/DL | ALKALINE PHOSPHATASE [1]: 354.33 u/L | ASPARTATE AMINOTRANSFERASE [1]: 73.83 u/L | BLOOD UREA NITROGEN [1]: 16 mg/dL | CARBON DIOXIDE [1]: 27.17 mmol/L | CHLORIDE [1]: 104.83 MEQ/L | CHOLESTEROL [1]: 83.33 mg/dL | CREATINE PHOSPHOKINASE [1]: 288 u/L | CREATININE [1]: 0.33 mg/dL | GLUCOSE [1]: 181.33 mg/dL | LACTATE DEHYDROGENASE [1]: 173.17 u/L | LIPASE [1]: 17.67 u/L | PHOSPHORUS [1]: 11.5 mg/dL | POTASSIUM [1]: 6.8 MEQ/L | SODIUM [1]: 147 MEQ/L | TOTAL BILIRUBIN [1]: 0.35 mg/dL | TOTAL PROTEIN [1]: 6.35 G/DL | URIC ACID [1]: 1.55 mg/dL | BASOPHIL [2]: 0.33% | EOSINOPHIL [2]: 0.85% | ERYTHROCYTE COUNT [2]: 6.98 x10E6/uL | HEMATOCRIT [2]: 38.58% | HEMOGLOBIN [2]: 14.25 G/DL | LEUKOCYTE COUNT [2]: 11.01 x10E3/uL | LYMPHOCYTE [2]: 85.07% | MEAN CORPUSCULAR HEMOGLOBIN [2]: 20.47 pg | MEAN CORPUSCULAR HEMOGLOBIN CONCENTRATION [2]: 31.45 G/DL | MEAN CORPUSCULAR VOLUME [2]: 64.9 fL | MONOCYTE [2]: 1.9% | NEUTROPHIL [2]: 11.42% | PLATELET COUNT [2]: 1289.67 x10E3/uL | BASOPHIL [3]: 0.52% | EOSINOPHIL [3]: 0.55% | ERYTHROCYTE COUNT [3]: 7.72 x10E6/uL | HEMATOCRIT [3]: 51.87% | HEMOGLOBIN [3]: 15.32 G/DL | LEUKOCYTE COUNT [3]: 16.2 x10E3/uL | LYMPHOCYTE [3]: 85.13% | MEAN CORPUSCULAR HEMOGLOBIN [3]: 19.85 pg | MEAN CORPUSCULAR HEMOGLOBIN CONCENTRATION [3]: 29.52 G/DL | MEAN CORPUSCULAR VOLUME [3]: 67.17 fL | MONOCYTE [3]: 1.7% | NEUTROPHIL [3]: 11.6% | PLATELET COUNT [3]: 1104.17 x10E3/uL | ALANINE AMINOTRANSFERASE [2]: 28.17 u/L | ALBUMIN [2]: 3.78 G/DL | ALKALINE PHOSPHATASE [2]: 385.33 u/L | ASPARTATE AMINOTRANSFERASE [2]: 78 u/L | BLOOD UREA NITROGEN [2]: 16.83 mg/dL | CARBON DIOXIDE [2]: 26.67 mmol/L | CHLORIDE [2]: 106.83 MEQ/L | CHOLESTEROL [2]: 82.67 mg/dL | CREATINE PHOSPHOKINASE [2]: 225.5 u/L | CREATININE [2]: 0.27 mg/dL | GLUCOSE [2]: 179.5 mg/dL | LACTATE DEHYDROGENASE [2]: 98.33 u/L | LIPASE [2]: 14.67 u/L | PHOSPHORUS [2]: 12.28 mg/dL | POTASSIUM [2]: 7.03 MEQ/L | SODIUM [2]: 150.33 MEQ/L | TOTAL BILIRUBIN [2]: 0.38 mg/dL | TOTAL PROTEIN [2]: 6.45 G/DL | URIC ACID [2]: 1.6 mg/dL | ALANINE AMINOTRANSFERASE [3]: 37 u/L | ALBUMIN [3]: 4.13 G/DL | ALKALINE PHOSPHATASE [3]: 342 u/L | ASPARTATE AMINOTRANSFERASE [3]: 71 u/L | BLOOD UREA NITROGEN [3]: 16.5 mg/dL | CARBON DIOXIDE [3]: 28.17 mmol/L | CHLORIDE [3]: 104 MEQ/L | CHOLESTEROL [3]: 70.67 mg/dL | CREATINE PHOSPHOKINASE [3]: 287.67 u/L | CREATININE [3]: 0.38 mg/dL | GLUCOSE [3]: 150.17 mg/dL | LACTATE DEHYDROGENASE [3]: 81.33 u/L | LIPASE [3]: 16 u/L | PHOSPHORUS [3]: 11.32 mg/dL | POTASSIUM [3]: 6.22 MEQ/L | SODIUM [3]: 147.33 MEQ/L | TOTAL BILIRUBIN [3]: 0.43 mg/dL | TOTAL PROTEIN [3]: 6.55 G/DL | URIC ACID [3]: 1.38 mg/dL | BASOPHIL [4]: 0.37% | EOSINOPHIL [4]: 0.43% | ERYTHROCYTE COUNT [4]: 6.84 x10E6/uL | HEMATOCRIT [4]: 44.53% | HEMOGLOBIN [4]: 13.97 G/DL | LEUKOCYTE COUNT [4]: 11.04 x10E3/uL | LYMPHOCYTE [4]: 82.73% | MEAN CORPUSCULAR HEMOGLOBIN [4]: 20.43 pg | MEAN CORPUSCULAR HEMOGLOBIN CONCENTRATION [4]: 31.4 G/DL | MEAN CORPUSCULAR VOLUME [4]: 65.2 fL | MONOCYTE [4]: 2.77% | NEUTROPHIL [4]: 12.93% | PLATELET COUNT [4]: 1402.67 x10E3/uL | ALANINE AMINOTRANSFERASE [4]: 41.67 u/L | ALBUMIN [4]: 3.9 G/DL | ALKALINE PHOSPHATASE [4]: 368 u/L | ASPARTATE AMINOTRANSFERASE [4]: 81.33 u/L | BLOOD UREA NITROGEN [4]: 15.33 mg/dL | CARBON DIOXIDE [4]: 26 mmol/L | CHLORIDE [4]: 105.33 MEQ/L | CHOLESTEROL [4]: 107.33 mg/dL | CREATINE PHOSPHOKINASE [4]: 232 u/L | CREATININE [4]: 0.4 mg/dL | GLUCOSE [4]: 184 mg/dL | LACTATE DEHYDROGENASE [4]: 181 u/L | LIPASE [4]: 21 u/L | PHOSPHORUS [4]: 10.67 mg/dL | POTASSIUM [4]: 6.63 MEQ/L | SODIUM [4]: 147.33 MEQ/L | TOTAL BILIRUBIN [4]: 0.37 mg/dL | TOTAL PROTEIN [4]: 6.6 G/DL | URIC ACID [4]: 1.53 mg/dL | BASOPHIL [5]: 0.33% | EOSINOPHIL [5]: 0.33% | ERYTHROCYTE COUNT [5]: 6.72 x10E6/uL | HEMATOCRIT [5]: 43.03% | HEMOGLOBIN [5]: 13.67 G/DL | LEUKOCYTE COUNT [5]: 11.41 x10E3/uL | LYMPHOCYTE [5]: 88.93% | MEAN CORPUSCULAR HEMOGLOBIN [5]: 20.37 pg | MEAN CORPUSCULAR HEMOGLOBIN CONCENTRATION [5]: 31.77 G/DL | MEAN CORPUSCULAR VOLUME [5]: 64.1 fL | MONOCYTE [5]: 2.73% | NEUTROPHIL [5]: 6.93% | PLATELET COUNT [5]: 1416.33 x10E3/uL | BASOPHIL [6]: 0.43% | EOSINOPHIL [6]: 1.53% | ERYTHROCYTE COUNT [6]: 6.88 x10E6/uL | HEMATOCRIT [6]: 45.62% | HEMOGLOBIN [6]: 13.7 G/DL | LEUKOCYTE COUNT [6]: 12.42 x10E3/uL | LYMPHOCYTE [6]: 88.5% | MEAN CORPUSCULAR HEMOGLOBIN [6]: 19.93 pg | MEAN CORPUSCULAR HEMOGLOBIN CONCENTRATION [6]: 30.02 G/DL | MEAN CORPUSCULAR VOLUME [6]: 66.33 fL | MONOCYTE [6]: 1.9% | NEUTROPHIL [6]: 6.83% | PLATELET COUNT [6]: 1312.75 x10E3/uL | ALANINE AMINOTRANSFERASE [5]: 34 u/L | ALBUMIN [5]: 3.93 G/DL | ALKALINE PHOSPHATASE [5]: 398 u/L | ASPARTATE AMINOTRANSFERASE [5]: 76.33 u/L | BLOOD UREA NITROGEN [5]: 15.67 mg/dL | CARBON DIOXIDE [5]: 24.33 mmol/L | CHLORIDE [5]: 110 MEQ/L | CHOLESTEROL [5]: 95.33 mg/dL | CREATINE PHOSPHOKINASE [5]: 145 u/L | CREATININE [5]: 0.3 mg/dL | GLUCOSE [5]: 175.33 mg/dL | LACTATE DEHYDROGENASE [5]: 95.33 u/L | LIPASE [5]: 6 u/L | PHOSPHORUS [5]: 11.3 mg/dL | POTASSIUM [5]: 6.9 MEQ/L | SODIUM [5]: 151.67 MEQ/L | TOTAL BILIRUBIN [5]: 0.37 mg/dL | TOTAL PROTEIN [5]: 6.67 G/DL | URIC ACID [5]: 1.63 mg/dL | ALANINE AMINOTRANSFERASE [6]: 34 u/L | ALBUMIN [6]: 4.45 G/DL | ALKALINE PHOSPHATASE [6]: 332.5 u/L | ASPARTATE AMINOTRANSFERASE [6]: 55.5 u/L | BLOOD UREA NITROGEN [6]: 17 mg/dL | CARBON DIOXIDE [6]: 27 mmol/L | CHLORIDE [6]: 105 MEQ/L | CHOLESTEROL [6]: 100.75 mg/dL | CREATINE PHOSPHOKINASE [6]: 116.5 u/L | CREATININE [6]: 0.32 mg/dL | GLUCOSE [6]: 136.5 mg/dL | LACTATE DEHYDROGENASE [6]: 63.5 u/L | LIPASE [6]: 9.75 u/L | PHOSPHORUS [6]: 12.12 mg/dL | POTASSIUM [6]: 6.47 MEQ/L | SODIUM [6]: 148.25 MEQ/L | TOTAL BILIRUBIN [6]: 0.35 mg/dL | TOTAL PROTEIN [6]: 7.2 G/DL | URIC ACID [6]: 1.62 mg/dL
